Laboratory results published in patent US20160199463A1, “HDAC2 DEFENDS VASCULAR ENDOTHELIUM FROM INJURY” (The Johns Hopkins University, priority 2014, published 2016).
Entries after “also recorded” stand apart in the source; their conditions may differ. Read-outs that look alike come from different tables or passages of the source. Blank lines part the entries; values can stand above or below the molecule they belong to. Peptide text beside a SMILES is read from it. * marks the point of attachment. Cbz = O=C(OCc1ccccc1)*

Tests used:
[1] = system: aortic rings of wild-type mice; test: Force tension (wire) myography, vascular relaxation of isolated wild-type mouse aortic rings; format: cell-based; design: Emax: dose or concentration left out as unconfirmed; settings: for endothelium-independent responses to SNP, dose-dependent vasorelaxation: MGCD0103, MLN4924 or both, FIG. 29B
Method: (§1) Mouse aorta was isolated and cleaned in ice-cold Krebs-Ringer-bicarbonate solution containing the following (in mM): 118.3 NaCl, 4.7 KCl, 1.6 CaCl2, 1.2 KH2 PO4, 25 NaHCO3, 1.2 MgSO4, and 11.1 dextrose. The aorta was immersed in a bath filled with constantly oxygenated Krebs buffer at 37° C. Equal size thoracic aortic rings (2 mm) were mounted using a microscope, ensuring no damage to the smooth muscle or endothelium. One end of the aortic rings was connected to a transducer, and the other to a micromanipulator. Aorta was passively stretched to an optimal resting tension using the micromanipulator, after which a dose of 60 mM KCl was administered, and repeated after a wash with Krebs buffer. After these washes, all vessels were allowed to equilibrate for 20-30 min in the presence of indomethacin (3 μM). Phenylephrine (1 μM) was administered to induce vasoconstriction. A dosedependent response (1 nM to 10 μM), with the muscarinic agonist, ACH or nitric oxide donor, SNP, was then performed as necessary. The responses were repeated in the presence of inhibitors. Relaxation responses were calculated as a percentage of tension following pre-constriction. Sigmoidal dose-response curves were fitted to data with the minimum constrained to 0. Two to four rings were isolated from each animal and the number of animals in each group (n) was 6.

[2] = system: calcium-insensitive eNOS in HEK 293 cells; test: NO radicals in medium of HEK 293 cells expressing calcium-insensitive eNOS (DCFH-DiOxyQ assay); format: cell-based, human; settings: TSA together with ABH
Method: (§2) Nitric Oxide levels in HAEC were determined using DAF-DA as per manufacture instructions (Life Sciences). Briefly, cells were loaded with DAF-DA (5 μM) for 20 min and washed 3 times with PBS and incubated for another 30 min in phenol-free media. Fluorescence was determined using a Nikon TE-200 epifluorescence microscope. Images were captured with a Rolera EMC2 camera (Q-Imaging, BC, Canada) with Velocity software (PerkinElmer, Lexington, Mass.). NO production in the cell culture media was also determined by measuring Nitrite levels using a Siever's NO analyzer. NO radicals were measured in cell media collected after 24 hours of treatment using the Oxiselect assay (Cell Biolabs, San Diego, Calif.).
Next, the functional consequences of HDAC inhibition on downstream endothelial cell signaling were evaluated. Because eNOS-derived NO plays a central role in endothelial function, eNOS activity was assessed by measuring NO production using 3 different assays. […] HEK 293 cells lack native eNOS expression, but do produce abundant Arg2. Cell medium from 293 cells transfected with a control plasmid (LacZ) was used as a control background signal that was subtracted from all the groups containing calcium-insensitive endothelial nitric oxide synthase.

[3] = system: NO production in HAECs; test: Nitric oxide production in HAECs (DAF-DA fluorescence, Siever's NO analyzer); format: cell-based, human; settings: TSA 1 μmol/L with ABH (1 μmol/L)
Method: as §2

[4] = system: Arg2; test: Arg2 protein expression in HAECs (Western blot); format: cell-based, human; settings: for OxLDL-induced increase in abundance of endothelial arginase: preincubation 8 h, MLN4924 1 μM or MG132 10 μM, then OxLDL 50 μg/mL 24 h
Method: (§3) After 48 hrs of HAEC cells transfection, cells were lysed in ice cold RIPA lysis buffer consisting of 20 mM Tris-HCl at pH 7.5, 150 mM NaCl, 1 mM EDTA, 1 mM EGTA, 1% NP40, 1% sodium deoxycholate, 1 mM Na3VO4, 2.5 mM sodium pyrophosphate, 1 mM 3-glycerophosphate, 1 μg/mL leupeptin, and a 1:1000 diluted protease inhibitor cocktail (Sigma). For immunoprecipitation studies, whole cell lysate lysates were centrifuged at 14,000×g and supernatants were precleared by incubation with Protein A/G-agarose beads for 2 h at 4° C. with rocking. Agarose beads were then pelleted by centrifugation at 1,000×g. FLAG-Arg2 in precleared lysates were immunoprecipitated by incubation overnight at 4° C. with rocking following addition of anti-FLAG antibody (10 μl). Immune complexes were eluted in 2×SDS sample buffer by boiling for 5 minutes before loading into SDS-PAGE. Western blotting analysis was performed by transferring the SDS gel onto a PVDF membrane and visualized using secondary antibodies conjugated to alkaline phosphatases.

[5] = system: HDAC2; test: HDAC2 protein expression in HAECs (immunoblot); format: cell-based, human; settings: for HDAC2 levels in OxLDL-exposed HAEC: pretreatment 8 h, MLN4924 1 μM or MG132 10 μM, then OxLDL 50 μg/mL 24 h
Method: as §3

[6] = system: arginase activity in HAECs; test: Arginase activity assay (urea production) in HAEC lysates; format: cell-based, human; settings: for OxLDL-induced increase in activity of endothelial arginase: preincubation 8 h, MLN4924 1 μM or MG132 10 μM, then OxLDL 50 μg/mL 24 h
Method: HAEC were lysed using RIPA buffer (50 mM of Tris.HCl, pH 7.5, 0.1 mM EDTA, 0.1% Triton X-100, and protease inhibitor), and centrifuged for 30 min at 14,000 g at 4° C. 50 μL (50-100 μg) of supernatant was added to 75 μl of 10 mM MnCl2 made in Tris-HCl (50 mM, pH 7.5) and heat activated by incubating at 55-60° C. for 10 min. 50 μL of L-Arginine that was prepared in 300 mM Tris-HCL, pH 9.7 were then added to the activated cell lysates to achieve final concentrations of 150 mM and incubated at 37° C. for 3 hrs with shaking. The reaction was stopped by adding 400 μL of an acid solution (H2SO4: H3PO4: H20=1:3:7). For colorimetric determination of urea, α-isonitrosopropiophenone (25 μL, 9% in ethanol) was added and further heated at 100° C. for 45 min. Samples were allowed to cool at room temperature in the dark for 10 min and urea concentration was determined by measuring absorbance at 550 nm using a spectrophotometer.

[7] = system: HDAC4, 5, 6, 7, and 8; settings: cited from earlier work
[8] = system: aortic rings from Arg2−/− mice; test: Force tension (wire) myography, vascular relaxation of aortic rings from Arg2-/- mice; format: cell-based, mouse; settings: Mus musculus, 18 h; read-out: Emax endothelium-dependent relaxation
Method: as §1

[9] = system: NEDD8; test: Protein NEDDylation in HAECs (immunoblot, immunoprecipitation); format: cell-based, human; settings: HAEC expressing HA-tagged-NEDD8; MLN4924 0, 0.1, 0.3 or 1 μM, dose-dependent
Method: FIG. 21A-FIG. 21H is a series of graphs and photographs of immunoblots showing inhibition of NEDDylation by MLN4924 improves OxLDL-mediated vascular endothelial dysfunction via downregulation of Arginase 2. Wire myography was used to measure vasorelaxation with acetylcholine (FIG. 21A, Ach) and sodium nitroprusside (FIG. 21B, SNP) in isolated mice aortas. Conditions included 24 h of OxLDL (50 μg/mL) or control medium preceded by 1 h with either vehicle (DMSO) or MLN4924 (1 μM). […] Note that native (and not transgene) HDAC2 protein levels are shown here. […] Note that “0 μgHA-NEDD8” denotes an empty vector (pcDNA3.1) control. *Indicates p b 0.05 vs control; **indicates p b 0.001; n=6 for vascular reactivity and arginase activity assays.
Densitometry analysis of data from three experiments is shown in top panel. […] Note that “0 μg HA-NEDD8” denotes an empty vector (pcDNA3.1) control. […] Western blots in this figure are representative of 3 independent experiments.

[10] = MS275 2 μmol/L, CI994 1 μmol/L, MC1568 0.5 μmol/L, PC34051 100 nmol/L, MGCD0103 1 μmol/L

SMILES: NC(CCCCB(O)O)C(=O)O (stereo not shown) [ABH, amino-2-borono-6-hexanoic acid]
Emax acetylcholine-mediated vasorelaxation, TSA-treated rings pretreated with ABH ([1]; TSA 200 nmol/L plus ABH (1 mmol/L), n=6): 65.7±12.1%
TSA effect on NO production in the presence of ABH [2]: failed to attenuate
TSA-induced decrease of NO production on coincubation with ABH [3]: failed to occur

SMILES: CC(=O)Nc1ccc(C(=O)Nc2ccccc2N)cc1 [CI994, Tacedinaline]
endothelial Arg2 expression, class-specific HDAC inhibitors [4, 10]: no substantial effects

SMILES: CC(C)C[C@@H](C=O)NC(=O)[C@H](CC(C)C)NC(=O)[C@H](CC(C)C)NC(=O)OCc1ccccc1 [MG132] (Cbz-Leu-Leu-Leu-aldehyde)
decrease of HDAC2 levels by HA-NEDD8 expression ([5]; MG132 10 μM, 8 h): abolished
HDAC2 levels in OxLDL-exposed HAEC [5]: rescued
OxLDL-induced increase in activity of endothelial arginase [6]: abolished
OxLDL-induced increase in abundance of endothelial arginase [4]: abolished

SMILES: Nc1ccccc1NC(=O)c1ccc(CNc2nccc(-c3cccnc3)n2)cc1 [MGCD0103, Mocetinostat]
endothelium-independent responses to SNP, dose-dependent vasorelaxation [1]: no significant differences
Ach response in WT aorta ([1]; MGCD0103 preincubation 48 hours): significant attenuation
Emax ([1]; Mus musculus, 18 h, read-out: Emax endothelial-dependent vascular relaxation (acetylcholine)): 42.7 ± 8.5%
SNP-mediated (endothelium-independent) vasorelaxation versus vehicle-only control ([1]; TSA 200 nmol/L or MGCD0103 1 μmol/L, 18 hours): no significant difference; also recorded: unaffected
activity to HDAC4, 5, 6, 7, and 8 [7]: selectivity against HDAC2, 3, and 11, and no
Emax at 1 µM [8]: 62.4 ± 16.5%
endothelial Arg2 expression, class-specific HDAC inhibitors [4]: upregulate

arginase activity in the absence of OxLDL ([6]; MLN4924 1 μM): decreased
OxLDL-induced increase in activity of endothelial arginase [6]: abolished
SMILES: NS(=O)(=O)OC[C@@H]1C[C@@H](n2ccc3c(N[C@H]4CCc5ccccc54)ncnc32)C[C@@H]1O [MLN4924]
quantity of NEDDylation conjugates [9]: attenuated
HDAC2 protein expression in the absence of OxLDL ([5]; MLN4924 0, 0.1, 0.3 or 1 μM): robust dose-dependent increase
HDAC2 levels in OxLDL-exposed HAEC [5]: rescued
endothelium-independent responses to SNP, dose-dependent vasorelaxation [1]: no significant differences
endothelial function (acetylcholine dose response) in OxLDL-exposed aortas ([1]; MLN4924 1 μM 1 h before OxLDL 50 μg/mL 24 h): Substantial rescue
Ach response in WT aorta ([1]; MLN4924 1.0 μM pretreatment): did not cause any significant changes
vascular endothelial dysfunction induced by MGCD0103 ([1]; MLN4924 1.0 μM together with MGCD0103): did not reverse
endothelial-dependent vascular relaxation, compound alone ([1]; MLN4924 1 μM without OxLDL): negligible effect
endothelial-independent vascular relaxation (sodium nitroprusside) ([1]; OxLDL 50 μg/mL 24 h, MLN4924 1 μM): unaffected
OxLDL-induced increase in abundance of endothelial arginase [4]: abolished

SMILES: Nc1ccccc1NC(=O)c1ccc(CNC(=O)OCc2cccnc2)cc1 [MS275, Entinostat]
endothelial Arg2 expression, class-specific HDAC inhibitors [4, 10]: no substantial effects
